This note sets out measurements from ChEMBL document CHEMBL3045044, “Further derivatives of 4-benzoyl-1,5-diphenyl-1H-pyrazole-3-carboxylic acid and their antibacterial activities” (2007).

≈ marks a conversion by molar mass, not a printed value. Calls of active or inactive are those of the source.

Holding throughout (format): functional
The subject of one test is Pseudomonas aeruginosa. Nature of the test: Antibacterial activity against Pseudomonas aeruginosa ATCC 9027 after overnight incubation by microdilution method. (In general: In broth dilution the organism is exposed to a series of concentrations in liquid medium.)
In another test the test system is Salmonella enteritidis. Nature of the test: Antibacterial activity against Salmonella enterica subsp. enterica serovar Enteritidis ATCC 1376 after overnight incubation by microdilution method.
The next test has as its system Klebsiella pneumoniae. The experiment in a line: Antibacterial activity against Klebsiella pneumoniae A137 after overnight incubation by microdilution method.
The next test concerns Proteus vulgaris. The experiment in a line: Antibacterial activity against Proteus vulgaris Kukem 1329 after overnight incubation by microdilution method.
In the next test the test system is Streptococcus pyogenes. Nature of the test: Antibacterial activity against Streptococcus pyogenes ATCC 176 after overnight incubation by microdilution method.
The test system of the next test is Escherichia coli. The experiment in a line: Antibacterial activity against Escherichia coli B3704 after overnight incubation by microdilution method.
The test system of the next test is Staphylococcus aureus. The experiment in a line: Antibacterial activity against Staphylococcus aureus ATCC 29213 after overnight incubation by microdilution method.
Another test has as its system Enterococcus faecalis. The experiment in a line: Antibacterial activity against Enterococcus faecalis ATCC 29122 after overnight incubation by microdilution method.
For a further test, the system named is Bacillus subtilis. The experiment in a line: Antibacterial activity against Bacillus subtilis ATCC 6633 after overnight incubation by microdilution method.
For the next test, the system named is Xanthomonas campestris. The experiment in a line: Antibacterial activity against Xanthomonas campestris A235 after overnight incubation by microdilution method.

Broadly, the MIC is the smallest concentration in the dilution series that meets the test's criterion for growth inhibition.

Take `O=c1onc(-c2ccccc2)c2c(-c3ccccc3)n(-c3ccccc3)nc12`: the MIC result with Pseudomonas aeruginosa, in the test with Salmonella enteritidis, in the test with Klebsiella pneumoniae, in the test with Staphylococcus aureus, in the test with Enterococcus faecalis and in the test on Bacillus subtilis was “inactive” in each case. The MIC was 512 µg/mL (≈ 1400 µM) in the test on Proteus vulgaris, 512 µg/mL (≈ 1400 µM) against Streptococcus pyogenes, 512 µg/mL (≈ 1400 µM) with Escherichia coli and 256 µg/mL (≈ 701 µM) against Xanthomonas campestris.
Consider `Nc1nnc(-c2ccccc2)c2c(-c3ccccc3)n(-c3ccccc3)nc12`, for which the MIC with Pseudomonas aeruginosa worked out at 32 µg/mL (≈ 88.1 µM); in the test on Proteus vulgaris it was 512 µg/mL (≈ 1410 µM); with Escherichia coli it was 512 µg/mL (≈ 1410 µM); in the test on Xanthomonas campestris, 512 µg/mL (≈ 1410 µM). Moreover, the MIC entry with Salmonella enteritidis, with Klebsiella pneumoniae, with Streptococcus pyogenes, in the test on Staphylococcus aureus, in the test on Enterococcus faecalis and with Bacillus subtilis was “inactive” in each case.
As for `NS(=O)(=O)NC(=O)c1nn(-c2ccccc2)c(-c2ccccc2)c1C(=O)c1ccccc1`, the minimum inhibitory concentration (MIC) with Pseudomonas aeruginosa, in the test on Salmonella enteritidis, in the test on Klebsiella pneumoniae, in the test with Proteus vulgaris, against Streptococcus pyogenes and against Escherichia coli was 32 µg/mL (≈ 71.7 µM) throughout. The MIC in the test with Staphylococcus aureus and with Xanthomonas campestris was 32 µg/mL (≈ 71.7 µM) throughout. Further, the MIC entry with Enterococcus faecalis and in the test with Bacillus subtilis was “inactive” in each case.
As for `N#Cc1nn(-c2ccccc2)c(-c2ccccc2)c1C(=O)c1ccccc1`, the MIC entry in the test on Pseudomonas aeruginosa, in the test with Salmonella enteritidis, in the test with Klebsiella pneumoniae, in the test on Streptococcus pyogenes, in the test with Staphylococcus aureus and in the test with Enterococcus faecalis was “inactive” in each case. Besides, the MIC result with Bacillus subtilis was “inactive”. Further, the minimal inhibitory concentration (MIC) in the test with Proteus vulgaris, against Escherichia coli and against Xanthomonas campestris was 512 µg/mL (≈ 1470 µM) throughout.
Regarding `O=C(N[C@H](CO)[C@H](O)c1ccc([N+](=O)[O-])cc1)C(Cl)Cl` [CHLORAMPHENICOL], the minimum inhibitory concentration (MIC) was found to be 24 µg/mL (≈ 74.3 µM) against Pseudomonas aeruginosa; 24 µg/mL (≈ 74.3 µM) against Salmonella enteritidis; 12 µg/mL (≈ 37.1 µM) in the test with Klebsiella pneumoniae; 24 µg/mL (≈ 74.3 µM) with Proteus vulgaris; 12 µg/mL (≈ 37.1 µM) with Streptococcus pyogenes; 6 µg/mL (≈ 18.6 µM) against Escherichia coli. In addition, the MIC is 6 µg/mL (≈ 18.6 µM) in the test with Staphylococcus aureus, 12 µg/mL (≈ 37.1 µM) in the test on Enterococcus faecalis, 24 µg/mL (≈ 74.3 µM) in the test with Bacillus subtilis and 12 µg/mL (≈ 37.1 µM) with Xanthomonas campestris.
As to `O=C(c1ccccc1)c1nn(-c2ccccc2)c(-c2ccccc2)c1C(=O)c1ccccc1`, the MIC entry with Pseudomonas aeruginosa, with Salmonella enteritidis, in the test with Klebsiella pneumoniae, in the test with Streptococcus pyogenes, with Escherichia coli and in the test with Staphylococcus aureus was “inactive” each time. Further, the MIC result in the test on Enterococcus faecalis and in the test on Bacillus subtilis was “inactive” in each case. Moreover, the minimal inhibitory concentration (MIC) in the test with Proteus vulgaris and in the test with Xanthomonas campestris was 512 µg/mL (≈ 1190 µM) in each case.
